Measurements from ChEMBL document CHEMBL5727772, “Substituted 3,4,5,6,8,10,14,14a-octahydro-2h-2,6-methanopyrido[1′,2′:4,5]pyrazino[2,1-b][1,3]oxazocines and methods for treating viral infections” (2020).

Experiment: 24 hours prior to assay, media containing 5 mM sodium butyrate were added to MDCKII cells in flasks, and cells were grown to 80-90% confluence. On assay day, cells were trypsinized and resuspended in Krebs-Henseleit Buffer (KHB), pH 7.4 at 5×10^6 […] cells/mL. Cells were preincubated for 15 min in assay plate before addition of test compound or substrate.Test compounds were serially diluted in DMSO and then spiked (2 μL) into in 0.4 mL KHB buffer containing wild-type or OCT2-transfected cells and incubated for 10 minutes. Assay was initiated with the addition of 0.1 mL of 100 μM 14C-TEA in KHB buffer (20 μM final concentration after mixing). The concentration of TEA is based on the Km. After 10 minutes of incubation, the assay mixture was quenched with addition of 0.5 mL of ice-cold 1×PBS buffer. Samples were then centrifuged at 1000 rpm for 5 min and supernatants were removed. Wash steps were repeated four times with ice-cold PBS. Finally, the cell pellets were lysed with 0.2N NaOH and let sit at room temperature for at least 30 min to ensure complete lysis.
Details: MDCK-II

Structure (SMILES) | IC50
O=C(NCc1cc(F)ccc1F)c1cn2c(cc1=O)C(=O)N1C3CCC(C3)C1C2 (stereo not drawn) | 450 nM
C[C@@H](NC(=O)c1cn2c(c(O)c1=O)C(=O)N1C(C2)O[C@@H]2CC[C@@H]1C2)c1ccc(F)cc1F (stereo partly drawn) | 610 nM
O=C(NCc1c(F)cc(F)cc1F)c1cn2c(c(O)c1=O)C(=O)N1C3CCC(C3)O[C@H]1C2 (stereo partly drawn) | 137 nM
